Ends that are not written are not given here.
Experiments:
[1] = 3H-heparin binding assay (affinity and capacity); settings: for Heparin Capacity: heparin bound at saturation; for Kd: read-out: Heparin Affinity
Summary of the method: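 Bound 3H-heparin was counted by liquid scintillation after 1 h incubation at 4 °C with fragments immobilised on PVDF-bottomed wells, then washing in blocking buffer. Signal was corrected for BSA-related background, and varying amounts of rBPI23 were used as positive control.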

[2] = tested on: zymosan-stimulated NO production by RAW 264.7 cells; assay: Zymosan-stimulated NO production by RAW 264.7 cells; type: cell-based, mouse
Experimental: (§1) An additional LPS neutralization screening assay for BPI functional domain peptides was developed using an assay for NO production in mouse cells treated with LPS (see Lorsbach et al., 1993, J. Biol. Chem. 268: 1908-1913). In this assay, mouse RAW 264.7 cells (ATCC Accession No. TIB71) were treated with bacterial LPS. The cells were incubated in 96-well plates and stimulated for 2 hours with E. coli 0113 LPS or zymosan, in the presence or absence of _-interferon, rLBP, fetal bovine serum (FBS) or normal human serum (NHS), or rBPI21Δcys. After this incubation, the cells were washed with fresh media and incubated overnight in media containing 10% FCS. The NO released from the cells accumulated in the media and spontaneously converted to nitrite. This nitrite was assayed in situ by the Griess reaction, as follows. The nitrite was reacted with the primary amine of an added sulfanilamide and formed a diazonium salt. This salt was then reacted with added naphthylethylenediamine to form a red azo-dyc. The Griess reaction was performed at room temperature in about 10 minutes. The amount of produced NO was estimated from a standard curve of Griess reaction products determined spectrophotometrically as Absorbance at a wavelength of 550 nm.

Staphylococcus aureus = assay: Radial diffusion bactericidal assay, Staphylococcus aureus; type: cell-based; settings: radial diffusion; PROBIT analysis; S. aureus
[3] = tested on: rough mutant E. coli J5 bacteria; assay: Radial diffusion bactericidal assay, E. coli J5; type: cell-based; settings: radial diffusion; for bactericidal activity (in words): E. coli J5; for pmol added to well to achieve a 30 mm^2 bactericidal zone, E. coli J5: PROBIT analysis, E. coli J5 (rough)
Summary of the method: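 Wells received 5 or 10 μL of BPI fragment, pre-incubated 3 h at 37 °C. The underlayer agarose carried washed log-phase organisms at 4×10^6 CFU/mL.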

[4] = tested on: E. coli 0111:B4 (smooth) bacteria; assay: Radial diffusion bactericidal assay, E. coli 0111:B4; type: cell-based; settings: radial diffusion; PROBIT analysis; E. coli O111:B4 (smooth)
[5] = In vitro heparin-mediated lengthening of APTT / clotting time of heparinized plasma; type: biochemical, human; settings: FIG. 12g
Experimental: In vitro, the effect of BPI combination functional domain peptides was determined on heparin-mediated lengthening of activated partial […] (APTT). The APTT is lengthened by the presence of endogenous or exogenous inhibitors of thrombin formation, such as therapeutically administered heparin. Thus, agents which neutralize the anti-coagulant effects of heparin will reduce the APTT measured by the test. Citrated human plasma (200 μL) was incubated for 1 minute at 37° C. with either 15 μL of diluent (0.15 M NaCl, 0.1 M Tris-HCl, pH 7.4) or 15 μL of the diluent also containing 25 μg/mL heparin (187 units/mg). Various concentrations (from 0.0 to 56 μg/mL) of rBPI23, rBPI21Δcys, or BPI combination peptides BPI.29 (the DIII homodimer) and BPI.30 (heterodimer DII+DIII) in a volume of 15 μL were added, followed immediately by 100 μL of thrombin reagent (Catalog No. 845-4, Sigma Chemical Co., St. Louis. MO). Clotting time ([…]) was measured using a BBL Fibrometer (Becton Dickenson Microbiology Systems, Cockeysville, Md.). […] FIG. 12e illustrates the results obtained with BPI.30 on a non-log scale.

Candida albicans = type: cell-based
C. albicans = assay: Radial diffusion fungicidal assay, Candida albicans; type: cell-based; settings: radial diffusion
E. coli 0113 LPS = assay: Limulus Amoebocyte Lysate (LAL) inhibition assay; type: biochemical; settings: alanine variant relative to BPI.13
Experimental: BPI proteolytic fragments produced according to Example 1 were subjected to a Limulus Amoebocyte Lysate (LAL) inhibition assay to determine LPS binding properties of these fragments. Specifically, each of the fragments were mixed in Eppendorf tubes with a fixed concentration of E. coli 0113 LPS (4 ng/mL final concentration) and incubated at 37° C. for 3 hours with occasional shaking. Addition controls comprising rBPI23 at 0.05 μg/mL were also tested. Following incubation, 360 μL of Dulbecco's phosphate buffered saline (D-PBS; Grand Island Biological Co. (GIBCO), Long Island, N.Y.) were added per tube to obtain an LPS concentration of 200 pg/mL for the LAL assay. Each sample was then transferred into Immulon II strips (Dynatech, Chantilly, Va.) in volumes of 50 μl per well.
Limulus amoebocyte Lysate (Quantitative Chromogenic LAL kit, Whitaker Bioproducts, Inc., Walkersville, Md.) was added at 50 μL per well and the wells were incubated at room temperature for 25 minutes. Chromogenic substrate was then added at a volume of 100 μL per well and was well mixed. After incubation for 20 to 30 minutes at room temperature, the reaction was stopped with addition of 100 μL of 25% (v/v) acetic acid. Optical density at 405 nm was then measured in a multiplate reader (Model Vmax, […], Menlo Park, Calif.) with the results shown in FIG. 2 in terms of percent inhibition of LPS. In this Figure, the filled circle represents rBPI23; the open circle represents Asp-N fragment A3; the x represents Asp-N fragment A2, the filled square represents Asp-N fragment A4; the filled triangle represents Asp-N fragment A1A2; the open square represents Asp-N fragment A6a; the small open triangle represents CNBr fragment C3; and the small filled square represents CNBr fragment C1/C5.

[6] = Lipid A binding competition with [125I]-rLBP
Experimental: A second binding assay was developed, wherein radiolabeled recombinant LPS binding protein ([^125I]-rLBP) was used instead of radiolabeled rBPI23 in competition experiments with BPI functional domain peptides BPI.2, BPI.3, BPI.4, BPI.5, BPI.7, BPI.13, BPI.14, BPI.29, BPI.30 and BPI.48, rBPI, rBPI21Δcys, and rLBP25 were included in these assays as controls. In these experiments, Lipid A was adsorbed to the wells at a concentration of 0.7 μg/mL in methanol. Incubation of radiolabeled rLBP (a total of 650,000 cpm and a specific activity of 3.45 μCi/μg) was performed for 2.5 hr at 37° C. in the presence of BPI peptides in a series of increasing concentrations. IC50 values (i.e., the concentration at which Lipid A binding of radiolabeled rLBP25 is inhibited to one half the value achieved in the absence of the peptide) are shown in accompanying Table XI.

[7] = tested on: LPS-stimulated NO production by RAW 264.7 cells; assay: LPS-stimulated NO production by RAW 264.7 cells; type: cell-based, mouse
Experimental: as §1

GTAALQKELKRIKIPDYSDSFKIKHLGKGH [BPI.14]
heparin binding capacity (in words) [1]: low heparin binding capacity
Heparin Capacity [1]: 119.3 ng
Kd [1]: 396 nM
inhibition of zymosan-stimulated NO production (in words) [2]: not inhibited
pmol added to well to achieve a 30 mm^2 bactericidal zone, S. aureus (Staphylococcus aureus): b (no detectable activity up to 5 μg/well)
bactericidal activity (in words) [3]: little or no bactericidal activity
pmol added to well to achieve a 30 mm^2 bactericidal zone, E. coli J5 [3]: b (no detectable activity up to 5 μg/well)
pmol added to well to achieve a 30 mm^2 bactericidal zone, E. coli O111:B4 [4]: b (no detectable activity up to 5 μg/well)
effect on the clotting time of heparinized blood (in words) [5]: less of a decrease in clotting times

KSKVGWLIQLFAKK [BPI.42]
HEPCAP (x Fold change in activity) ([1]; heparin binding capacity, relative to BPI.13): =1.0 x Fold
Heparin Capacity [1]: 369.1 ng
Kd [1]: 820 nM
decline of Kd of heparin binding ([1]; vs unsubstituted peptide): 1.2 fold
pmol added to well to achieve a 30 mm^2 bactericidal zone, E. coli J5 [3]: 264.80 pmol
pmol added to well to achieve a 30 mm^2 bactericidal zone, E. coli O111:B4 [4]: 3,731.70 pmol
MIC C. alb (Candida albicans): 6.25 µg/mL
MIC (x Fold change in fungicidal activity) (Candida albicans; alanine variant relative to BPI.13): =
C. albicans: pmol required for 30 mm^2 zone (C. albicans): 548.49 pmol
LAL (relative difference) (E. coli 0113 LPS): = (no difference in the LAL assay)

KSKVGWLIQLFHAK [BPI.43]
Heparin Capacity [1]: 283.9 ng
Kd [1]: 492 nM
pmol added to well to achieve a 30 mm^2 bactericidal zone, E. coli J5 [3]: 729.40 pmol
pmol added to well to achieve a 30 mm^2 bactericidal zone, E. coli O111:B4 [4]: 4,872.30 pmol
MIC C. alb (Candida albicans): 12.50 µg/mL
C. albicans: pmol required for 30 mm^2 zone (C. albicans): 784.78 pmol
LAL (relative difference) (E. coli 0113 LPS): = (no difference in the LAL assay)

LQKELKRIKIPDYSDSFKIKHL [BPI.4]
heparin binding capacity (in words) [1]: low heparin binding capacity
Heparin Capacity [1]: 80.8 ng
Kd [1]: 336 nM
inhibition of zymosan-stimulated NO production (in words) [2]: not inhibited
pmol added to well to achieve a 30 mm^2 bactericidal zone, S. aureus (Staphylococcus aureus): b (no detectable activity up to 5 μg/well)
bactericidal activity (in words) [3]: little or no bactericidal activity
pmol added to well to achieve a 30 mm^2 bactericidal zone, E. coli J5 [3]: b (no detectable activity up to 5 μg/well)
pmol added to well to achieve a 30 mm^2 bactericidal zone, E. coli O111:B4 [4]: b (no detectable activity up to 5 μg/well)
effect on the clotting time of heparinized blood (in words) [5]: less of a decrease in clotting times

B1: rLBP: recombinant lipopolysaccharide binding protein (LBP holoprotein) (protein, UniProt P18428 26-481, looked up)
Lipopolysaccharide-binding …: ANPGLVARITDKGLQYAAQEGLLALQSELLRITLPDFTGDLRIPHVGRGRYEFHSLNIHSCELLHSALRPVPGQGLSLSISDSSIRVQGRWKVRKSFFKLQGSFDVSVKGISISVNLLLGSESSGRPTVTASSCSSDIADVEVDMSGDLGWLLNLFHNQIESKFQKVLESRICEMIQKSVSSDLQPYLQTLPVTTEIDSFADIDYSLVEAPRATAQMLEVMFKGEIFHRNHRSPVTLLAAVMSLPEEHNKMVYFAISDYVFNTASLVYHEEGYLNFSITDDMIPPDSNIRLTTKSFRPFVPRLARLYPNMNLELQGSVPSAPLLNFSPGNLSVDPYMEIDAFVLLPSSSKEPVFRLSVATNVSATLTFNTSKITGFLKPGKVKVELKESKVGLFNAELLEALLNYYILNTFYPKFNDKLAEGFPLPLLKRVQLYDLGLQIHKDFLFLGANVQYMRV
inhibition of zymosan-stimulated NO production (in words) [2]: no significant inhibition

B2: rLBP25: LBP amino-terminal fragment, first 197 amino acids of lipopolysaccharide binding protein (protein)
chain: MGALARALPSILLALLLTSTPEALGANPGLVARITDKGLQYAAQEGLLALQSELLRITLPDFTGDLRIPHVGRGRYEFHSLNIHSCELLHSALRPVPGQGLSLSISDSSIRVQGRWKVRKSFFKLQGSFDVSVKGISISVNLLLGSESSGRPTVTASSCSSDIADVEVDMSGDLGWLLNLFHNQIESKFQKVLESRICEMIQKSVSSDLQPYLQTLPVTTEIDSFADIDYSLVEAPRATAQMLEVMFKGEIFHRNHRSPVTLLAAVMSLPEEHNKMVYFAISDYVFNTASLVYHEEGYLNFSITDEMIPPDSNIRLTTKSFRPFVPRLARLYPNMNLELQGSVPSAPLLNFSPGNLSVDPYMEIDAFVLLPSSSKEPVFRLSVATNVSATLTFNTSKITGFLKPGKVKVELKESKVGLFNAELLEALLNYYILNTFYPKFNDKLAEGFPLPLLKRVQLYDLGLQIHKDFLFLGANVQYMRV
inhibition of zymosan-stimulated NO production (in words) [2]: No inhibition
IC50 (inhibition of Lipid A binding of radiolabeled rLBP) [6]: 15 µg/mL
IC50 ([6]; read-out: IC50 (inhibition of Lipid A binding of radiolabeled rLBP)): 600 nM
effect on the clotting time of heparinized blood (in words) [5]: less of a decrease in clotting times
inhibition of LPS-stimulated NO production (in words) [7]: inhibited in a concentration-dependent manner

Reference: patent US20040023884A1, “Biologically active peptides from functional domains of bactericidal/permeability-increasing protein and uses thereof” (priority 1993, published 2004)
